ChEMBL document CHEMBL1201862, “PubChem BioAssay data set” (2004)
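Compound exposure: 48 hours, 5 concentrations, 96-well plates. Here, GI50 denotes the concentration required for 50% inhibition of growth.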 The source made the active and inactive calls. Rule as the data show it: active = GI50 up to about 1.1 µM and inactive = higher.

Legend:
Assay in all cases: NCI tumour cell line growth inhibition, 48 h
A498 = test system: A498
SK-MEL-28 = test system: SK-MEL-28
OVCAR-8 = test system: OVCAR-8
SK-OV-3 = test system: SK-OV-3
SNB-19 = test system: SNB-19
DU-145 = test system: DU-145
SF-539 = test system: SF-539
UO-31 = test system: UO-31
K562 = test system: K562
NCI-H23 = test system: NCI-H23
A549 = test system: A549
UACC-62 = test system: UACC-62
M14 = test system: M14
HCC 2998 = test system: HCC 2998
SK-MEL-5 = test system: SK-MEL-5
ACHN = test system: ACHN
OVCAR-3 = test system: OVCAR-3
OVCAR-4 = test system: OVCAR-4
UACC-257 = test system: UACC-257
HL-60 = test system: HL-60

SMILES	GI50 (A498)	GI50 (SK-MEL-28)	GI50 (OVCAR-8)	GI50 (SK-OV-3)	GI50 (SNB-19)	GI50 (DU-145)	GI50 (SF-539)	GI50 (UO-31)	GI50 (K562)	GI50 (NCI-H23)	GI50 (A549)	GI50 (UACC-62)	GI50 (M14)	GI50 (HCC 2998)	GI50 (SK-MEL-5)	GI50 (ACHN)	GI50 (OVCAR-3)	GI50 (OVCAR-4)	GI50 (UACC-257)	GI50 (HL-60)
COc1cc(C2c3cc4c(cc3[C@@H](Nc3ccc(N)cc3)C3COC(=O)[C@H]23)OCO4)cc(OC)c1O (stereo partly drawn)	1.18 µM (inactive)	6.76 µM (inactive)	2.22 µM (inactive)	1.51 µM (inactive)	0.805 µM (active)	0.121 µM (active)	1.07 µM (active)	1.34 µM (inactive)	3.13 µM (inactive)	0.828 µM (active)	0.137 µM (active)	1.15 µM (inactive)	1.31 µM (inactive)	3.27 µM (inactive)	0.918 µM (active)	1.25 µM (inactive)	6.1 µM (inactive)	24.5 µM (inactive)	7.19 µM (inactive)	
Cc1ccc(Nc2c3c(c(C#N)c4nc5ccccc5n24)CCCC3)cc1		22.1 µM (inactive)	18 µM (inactive)	38 µM (inactive)	38.4 µM (inactive)	52.7 µM (inactive)	19.4 µM (inactive)	12 µM (inactive)	4.39 µM (inactive)	22.4 µM (inactive)	12.5 µM (inactive)	14.7 µM (inactive)	21.6 µM (inactive)	17.6 µM (inactive)	10.7 µM (inactive)	21.6 µM (inactive)	11.1 µM (inactive)	20.7 µM (inactive)	17.7 µM (inactive)	5.53 µM (inactive)
N=C(CSSCC(=N)NCC12CC3CC(CC(C3)C1)C2)NCC12CC3CC(CC(C3)C1)C2	25.5 µM (inactive)	20.7 µM (inactive)	18 µM (inactive)	17 µM (inactive)	19.2 µM (inactive)	16.9 µM (inactive)	17.7 µM (inactive)	18.2 µM (inactive)	11.4 µM (inactive)	16 µM (inactive)	13.7 µM (inactive)	13.3 µM (inactive)	18.2 µM (inactive)		20.2 µM (inactive)	13.3 µM (inactive)	16.1 µM (inactive)	14.4 µM (inactive)	14.6 µM (inactive)	11 µM (inactive)
N=C(N)SCc1ccc(N=C=S)cc1	13.9 µM (inactive)	14.6 µM (inactive)	15.2 µM (inactive)	17.3 µM (inactive)	13.8 µM (inactive)	15.9 µM (inactive)	14.1 µM (inactive)	12.5 µM (inactive)	11.7 µM (inactive)	14.2 µM (inactive)	16.3 µM (inactive)	11.4 µM (inactive)		16.6 µM (inactive)	14 µM (inactive)	13.2 µM (inactive)		14.3 µM (inactive)	13.1 µM (inactive)	5.62 µM (inactive)
CC(=O)Oc1ccc2c(c1)Oc1cc(C(C)=O)ccc1C21OC(=O)c2ccccc21 (stereo not drawn)	> 100 µM (inactive)	> 100 µM (inactive)	> 100 µM (inactive)	94.8 µM (inactive)	> 100 µM (inactive)	> 100 µM (inactive)		85.5 µM (inactive)	> 100 µM (inactive)	> 100 µM (inactive)	> 100 µM (inactive)	> 100 µM (inactive)	> 100 µM (inactive)	> 100 µM (inactive)	> 100 µM (inactive)	> 100 µM (inactive)	60.3 µM (inactive)	> 100 µM (inactive)	> 100 µM (inactive)	44.6 µM (inactive)
O=C1C(c2c(O)[nH]c3ccc(Cl)cc23)=Nc2ccccc21	5.01 µM (inactive)	> 100 µM (inactive)	4.09 µM (inactive)	3.08 µM (inactive)	10.3 µM (inactive)	2.81 µM (inactive)	4.65 µM (inactive)		7.71 µM (inactive)	9.12 µM (inactive)	3.58 µM (inactive)	11.8 µM (inactive)	6.85 µM (inactive)		3.18 µM (inactive)	3.86 µM (inactive)	3.66 µM (inactive)	2.2 µM (inactive)	> 53.5 µM (inactive)	28.8 µM (inactive)
COC(=O)[C@H]1CO[C@@H](C(C)(C)C)N1C(=O)N1C=CC(=O)C[C@@H]1C	> 100 µM (inactive)	> 100 µM (inactive)	> 100 µM (inactive)	> 100 µM (inactive)		> 100 µM (inactive)		> 100 µM (inactive)	> 100 µM (inactive)	> 100 µM (inactive)	> 100 µM (inactive)	> 100 µM (inactive)			> 100 µM (inactive)	> 100 µM (inactive)	> 100 µM (inactive)		> 100 µM (inactive)	> 100 µM (inactive)
Cc1c(C)c(C)c(CC2(C)CSC2)c(CC2(C)CSC2)c1C	> 100 µM (inactive)	> 100 µM (inactive)	> 100 µM (inactive)	> 100 µM (inactive)	> 100 µM (inactive)	> 100 µM (inactive)	> 100 µM (inactive)	> 100 µM (inactive)	> 100 µM (inactive)		> 100 µM (inactive)	> 100 µM (inactive)	> 100 µM (inactive)		> 100 µM (inactive)	> 100 µM (inactive)	> 100 µM (inactive)		> 100 µM (inactive)	> 100 µM (inactive)
NS(=O)(=O)c1ccc(N2C(=O)C(=O)N(c3ccccc3)C2=S)cc1	> 100 µM (inactive)	> 100 µM (inactive)	> 100 µM (inactive)	> 100 µM (inactive)	> 100 µM (inactive)	> 100 µM (inactive)	> 100 µM (inactive)	> 100 µM (inactive)	> 100 µM (inactive)	> 100 µM (inactive)	> 100 µM (inactive)	> 100 µM (inactive)		> 100 µM (inactive)	97.1 µM (inactive)	> 100 µM (inactive)		30.6 µM (inactive)	37.8 µM (inactive)	> 100 µM (inactive)
O=[N+]([O-])c1ccc(NN=C2CN3CCN(C2)c2ccccc23)c([N+](=O)[O-])c1	> 100 µM (inactive)	> 100 µM (inactive)	> 100 µM (inactive)	> 100 µM (inactive)	> 100 µM (inactive)	> 100 µM (inactive)	> 100 µM (inactive)	> 100 µM (inactive)	> 100 µM (inactive)	> 100 µM (inactive)	> 100 µM (inactive)	> 100 µM (inactive)	> 100 µM (inactive)	> 100 µM (inactive)	> 100 µM (inactive)	> 100 µM (inactive)	> 100 µM (inactive)	> 100 µM (inactive)	> 100 µM (inactive)	
CC1(CC(=O)OC(C#C[Si](C)(C)C)Cc2ccccc2)OCCO1 (stereo not drawn)	> 100 µM (inactive)	> 100 µM (inactive)	> 100 µM (inactive)	> 100 µM (inactive)	> 100 µM (inactive)	> 100 µM (inactive)	> 100 µM (inactive)	> 100 µM (inactive)		> 100 µM (inactive)	> 100 µM (inactive)	> 100 µM (inactive)	> 100 µM (inactive)		> 100 µM (inactive)	> 100 µM (inactive)		> 100 µM (inactive)	> 100 µM (inactive)	> 100 µM (inactive)
COC(=O)c1ccccc1C1CN=NC12Cc1ccccc1C2=O (stereo not drawn)		77.6 µM (inactive)	59.6 µM (inactive)	> 100 µM (inactive)	> 100 µM (inactive)	> 100 µM (inactive)	> 100 µM (inactive)	34.2 µM (inactive)	68.5 µM (inactive)	> 100 µM (inactive)	> 100 µM (inactive)	42.1 µM (inactive)	68.1 µM (inactive)	> 100 µM (inactive)	42.4 µM (inactive)	> 100 µM (inactive)	40.5 µM (inactive)	52.4 µM (inactive)	> 100 µM (inactive)	47.4 µM (inactive)
OCC1C(O)C(O)[C@@H]2SCCN12 (stereo partly drawn)	> 100 µM (inactive)	> 100 µM (inactive)	> 100 µM (inactive)	> 100 µM (inactive)	> 100 µM (inactive)	> 100 µM (inactive)		> 100 µM (inactive)	> 100 µM (inactive)	> 100 µM (inactive)	> 100 µM (inactive)	> 100 µM (inactive)	> 100 µM (inactive)	> 100 µM (inactive)	> 100 µM (inactive)	> 100 µM (inactive)	> 100 µM (inactive)	> 100 µM (inactive)	> 100 µM (inactive)	> 100 µM (inactive)
Cc1nnc(N)nc1/C=C\c1ccc(Cl)cc1Cl	> 100 µM (inactive)	55.5 µM (inactive)	27 µM (inactive)	45.5 µM (inactive)	30.2 µM (inactive)	72.8 µM (inactive)		54.2 µM (inactive)	77.8 µM (inactive)	33.7 µM (inactive)	39.2 µM (inactive)	30.8 µM (inactive)	29.6 µM (inactive)	21.6 µM (inactive)	30.9 µM (inactive)	36.4 µM (inactive)		34.5 µM (inactive)	54.6 µM (inactive)	27 µM (inactive)
COc1cc(C2SC(C)C(=O)N2c2ccc(-c3csc(NS(=O)(=O)c4ccc(Cl)c(OC)c4)n3)cc2)ccc1O (stereo not drawn)	> 100 µM (inactive)	> 100 µM (inactive)	29.7 µM (inactive)	> 100 µM (inactive)	> 100 µM (inactive)	> 100 µM (inactive)	32.7 µM (inactive)	> 100 µM (inactive)	34 µM (inactive)	22.6 µM (inactive)	> 100 µM (inactive)	25.4 µM (inactive)	> 100 µM (inactive)		> 100 µM (inactive)	> 100 µM (inactive)	56.4 µM (inactive)	26.3 µM (inactive)	85.7 µM (inactive)	48.2 µM (inactive)
